According to US10791742B2, “Plant growth regulator compounds” (SYNGENTA PARTICIPATIONS AG, priority 2016, dated 2020):

Experiments:
[1] = system: corn plants (variety NK OCTET); experiment: Reduced plant water use in corn (foliar spray, pot weighing); type: in vivo; settings: for % WU 0 DAA (PM): Table A3 (comparison trial), 0 DAA p.m.
Experimental: (§1) Compounds were tested for their effect on reducing plant water use as follows. The compounds were applied by foliar spray to 12 day old corn plants (variety NK OCTET) grown in controlled environment plant growth chambers. All compounds were applied using an emulsifiable concentrate (EC) formulation that was diluted to the desired concentrations with water containing 0.4% of the adjuvant rape seed methyl ester. Plant water use during the day was assessed by repeated weighing of the pots in which the plants were grown before and after application of the compounds at the indicated times (expressed in days after application (DAA)). The water use data before application was used to correct any differences in water use arising due to non-treatment effects (e.g. due to differences in plant size). The untransformed water use values were subjected to an analysis of covariance, fitting the effect of treatment and using the baseline water use 1 day before application as a covariate. Application of the chemicals (0 DAA) took place approximately between 08:00 and 09:30 a.m. Water use (WU) was measured within day time (chamber light is on 06:00 to 20:00) at these timepoints: 0 DAA a.m. (10:30-12:50), 0 DAA p.m. (14:00-19:50).

[2] = system: soybean plants (variety S20-G7); experiment: Reduced plant water use in soybean (foliar spray, pot weighing); type: in vivo; settings: Table A4, 125 μM foliar spray, water use vs negative control, average of 6 pots; for % WU 0 DAA (AM): 0 DAA a.m. (10:30-12:50); for % WU 0 DAA (PM): 0 DAA p.m. (14:00-19:50)
Experimental: as §1, with “soybean” for “corn”, “S20-G7)” for “NK OCTET)”, “concentration” for “concentrations”, “additional surfactant (EXTRAVON 1 g/20 L).” for “0.4% of the adjuvant rape seed methyl ester.”, “covariate.” for “covariate. Application of the chemicals (0 DAA) took place approximately between 08:00 and 09:30 a.m. Water use (WU) was measured within day time (chamber light is on 06:00 to 20:00) at these timepoints: 0 DAA a.m. (10:30-12:50), 0 DAA p.m. (14:00-19:50).”
Application of the chemicals (0 DAA) took place approximately between 08:00 and 09:30 a.m. Water use (WU) was measured within day time (chamber light is on 06:00 to 20:00) at these timepoints: 0 DAA a.m. (10:30-12:50), 0 DAA p.m. (14:00-19:50).

[3] = corn, 500 μM foliar spray, water use vs negative control, average of 6 pots

Structure (SMILES) | % WU 0 DAA (PM) [1, 3] | % WU 0 DAA (AM) [2] | % WU 0 DAA (PM) [2] | further results
CCN1C(=O)CC(C)c2cc(CNS(=O)(=O)c3ccccc3)ccc21 (centres unmarked) [A, reference compound] | −24% | – | – | –
CCN1C(=O)OC(C)c2cc(CNS(=O)(=O)c3ccccc3)ccc21 (centres unmarked) [Compound 13.001, N-[(1-ethyl-4-methyl-2-oxo-4H-3,1-benzoxazin-6-yl)methyl]-benzenesulfonamide] | −40% | – | – | ABA agonist potency compared with compound A (in words) ([1]; concluded from Table A3, corn water use at 500 μM): more potent ABA agonist than dihydroquinolinone compound A
CCCN1C(=O)OC(C)c2cc(CNS(=O)(=O)c3ccccc3)ccc21 (centres unmarked) [Compound 14.001, N-[(4-methyl-2-oxo-1-propyl-4H-3,1-benzoxazin-6-yl)methyl]-benzenesulfonamide] | – | −49% | −55% | –
CCCN1C(=O)OC(C)c2cc(CNS(=O)(=O)c3ccc(Cl)s3)ccc21 (centres unmarked) [Compound 14.048, 5-chloro-N-[(4-methyl-2-oxo-1-propyl-4H-3,1-benzoxazin-6-yl)methyl]thiophene-2-sulfonamide] | – | −51% | −55% | –
CCN1C(=O)OC(C)c2cc(CNS(=O)(=O)c3ccccc3)cc(F)c21 (centres unmarked) [Compound 20.001, N-[(1-ethyl-8-fluoro-4-methy1-2-oxo-4H-3,1-benzoxazin-6-yl)methyl]benzenesulfonamide] | – | – | – | % WU 0 DAA (AM) ([1]; Table A2 (further trial), corn, 500 μM foliar spray, water use vs negative control, 0 DAA a.m. (10:30-12:50), average of 6 pots): −37%; % WU ODAA (PM) ([1]; Table A2 (further trial), corn, 500 μM foliar spray, water use vs negative control, 0 DAA p.m. (14:00-19:50), average of 6 pots): −42%
CCCN1C(=O)OC(C)c2cc(CNS(=O)(=O)c3ccccc3)cc(F)c21 (centres unmarked) [Compound 25.001, N-[(8-fluoro-4-methyl-2-oxo-1-propyl-4H-3,1-benzoxazin-6-yl)methyl]benzenesulfonamide] | – | −48% | −53% | –
